In patent publication US9205098B2, “Anti-cancer therapies” (Threshold Pharmaceuticals, Inc., priority 2004, dated 2015):

Assays:
[1] = system: pancreatic cancer cell lines; conditions: in vitro; cited from earlier work
[2] = system: advanced pancreatic cancer; conditions: patients with advanced pancreatic cancer; cited from earlier work
[3] = system: tumors derived from HS766-T human pancreatic cancer cells; assay: HS766-T human pancreatic cancer tumor model in mice; format: in vivo, female NMRI nu/nu mice
Protocol: (§1) A combination of glufosfamide and gemcitabine was administered daily for 7 days to female NMRI nu/nu mice that were carrying tumors derived from HS766-T or As-PC-1 human pancreatic cancer cells. Mice were administered doses of vehicle control (0.9% sodium chloride solution, i.v.), gemcitabine (i.p.), glufosfamide (i.v.) or gemcitabine/glufosfamide combinations once daily for 7 consecutive days. A dose of 1.25 mg/kg was used as the standard dose for gemcitabine throughout the study.

[4] = system: tumors derived from type MiPaca2 human pancreatic cancer cells; assay: MiPaca2 human pancreatic cancer tumor model in nude mice; format: in vivo
Protocol: A combination of glufosfamide and gemcitabine was administered to nude mice that were carrying tumors derived from type MiPaca2 human pancreatic cancer cells. Mice were administered doses of vehicle control, gemcitabine, glufosfamide, or gemcitabine/glufosfamide combinations as tabulated in Table 1 below (10 mice/group). Glufosfamide was administered i.v., daily for 14 days (Groups 1-4 and 7-12). Gemcitabine was administered at 300 mg/kg, i.p., once a week for three weeks (Groups 6 and 10-12). Gemcitabine was administered at 150 mg/kg, i.p., twice a week for three weeks (Groups 5 and 7-9).

[5] = system: tumors derived from As-PC-1 human pancreatic cancer cells; assay: As-PC-1 human pancreatic cancer tumor model in mice; format: in vivo, female NMRI nu/nu mice; conditions: glufosfamide i.v., gemcitabine i.p., alone or in combination, once daily for 7 days
Protocol: as §1

Nc1nc2[nH]cc(CCc3ccc(C(=O)N[C@@H](CCC(=O)O)C(=O)O)cc3)c2c(=O)[nH]1 [pemetrexed]
activity against pancreatic cancer cell lines [1]: active
activity in patients [2]: has shown activity

O=P(NCCCl)(NCCCl)O[C@@H]1O[C@H](CO)[C@@H](O)[C@H](O)[C@H]1O [glufosfamide, β-D-glucosyl-ifosfamide mustard]
onset of tumor growth compared with gemcitabine alone or vehicle control ([3]; glufosfamide 10 mg/kg i.v. once daily for 7 days): dramatic delay in the onset of tumor growth
reduction in tumor size ([4]; Group 3: glufosfamide 30 mg/kg i.v. daily for 14 days): modest reduction in tumor size
reduction in tumor size ([4]; Group 4: glufosfamide 100 mg/kg i.v. daily for 14 days): modest reduction in tumor size
inhibitory effect on tumor growth [5]: no apparent inhibitory effect on tumor growth

Nc1ccn([C@@H]2O[C@H](CO)[C@@H](O)C2(F)F)c(=O)n1 [gemcitabine, 2′-deoxy-2′,2′-difluoro-cytidine]
inhibitory effect on tumor progression ([3]; gemcitabine alone 1.25 mg/kg i.p. once daily for 7 days): only a marginal inhibitory effect
inhibitory effect on tumor growth [5]: no apparent inhibitory effect on tumor growth
